Measured values reported in US5587473A, “7-acyl-3-(substituted carbamoyloxy) cephem compounds and process for their preparation” (Eisai Co., Ltd., priority 1990, dated 1996).
In brackets after ≈: the same amount, converted by molar mass.

Legend:
[1] = system: Morganella morganii IID601; assay: MIC against Morganella morganii IID601; format: cell-based; conditions: Table 1
[2] = system: Staphylococcus aureus 209-P; assay: MIC against Staphylococcus aureus 209-P; format: cell-based; conditions: Table 1
[3] = system: Klebsiella pneumoniae IID875; assay: MIC against Klebsiella pneumoniae IID875; format: cell-based; conditions: Table 1
[4] = system: Serratia marcescens IID620; assay: MIC against Serratia marcescens IID620; format: cell-based; conditions: Table 1
[5] = system: Haemophilus influenzae IID1638; assay: MIC against Haemophilus influenzae IID1638; format: cell-based; conditions: Table 1
[6] = system: Escherichia coli NIHJ; assay: MIC against Escherichia coli NIHJ; format: cell-based; conditions: Table 1
[7] = Bioavailability by oral administration in mice (urinary excretion); format: in vivo; conditions: mouse, urine, 20 mg/kg, CMC-Na suspension; for dose excreted at 6 h: collected during 6 hours, read-out: Recovery in urea
Procedure: Certain representative compounds according to the present invention were each suspended in a CMC-Na solution. The resulting suspension was administered orally to mice at the dosage of 20 mg/kg. Urea excreted during 6 hours after the administration was collected.

[8] = system: Klebsiella pneumonia E02033; assay: Treatment of respiratory-infected mice, Klebsiella pneumonia E02033; format: in vivo, mouse infected with Klebsiella pneumonia; conditions: mouse, oral, 10 mg/kg; for Intrapulmonary viable cells: 4 hours after inoculation of 1.4 × 10^3 CFU/mouse, counted 24 hours after infection, limit 1.48, no colony = 1, control 7.31 ± 0.73; for Eradication rate: inoculum 1.4 × 10^3 CFU/mouse, 24 hours after infection, control 0
Procedure: (§1) A bacterium-containing solution was inoculated into the nasal cavity of each mouse, followed by the oral administration of a suspension of one of the compounds in a CMC-Na solution one hour later where the bacterium was Haemophilus influenzae but four hours later where the bacterium was Klebsiella pneumoniae. The number of intrapulmonary viable cells of the bacterium was counted upon an elapsed time of 24 hours after the infection. The measurement limit is represented by the following formula. Log CFU/Lung=1.48 wherein CFU is the colony forming unit. When no colony was observed, the bacterium was regarded as having been eradicated and Log CFU/Lung was calculated to be 1.

[9] = system: Klebsiella pneumonia E02033; assay: MIC against Klebsiella pneumonia E02033; format: cell-based; conditions: Klebsiella pneumoniae, Table 3
[10] = system: Haemophilus influenzae E35147; assay: MIC against Haemophilus influenzae E35147; format: cell-based; conditions: Table 4
[11] = system: Haemophilus influenzae E35147; assay: Treatment of respiratory-infected mice, Haemophilus influenzae E35147; format: in vivo, mouse infected with Haemophilus influenzae; conditions: mouse, oral, 40 mg/kg, 1 hour after inoculation of 4.3 × 10^5 CFU/mouse; counted 24 hours after infection; limit 1.48, no colony = 1; control 5.73 ± 0.58
Procedure: as §1

Molecule	MIC [1] [µg/mL]	MIC [2] [µg/mL]	MIC [3] [µg/mL]	MIC [4] [µg/mL]	MIC [5] [µg/mL]	MIC [6] [µg/mL]	bioavailability at 6 h [7] [%]	dose excreted at 6 h [7] [%]	MIC [10] [µg/mL]	Intrapulmonary viable cells [11] [Log CFU/Lung]	other results
1-(Isopropoxycarbonyloxy)ethyl 7β-[2-(2-aminothiazol-4-yl)-2-(Z)-hydroxyiminoacetamido]-3-N,N-dimethylcarbamoyloxymethyl-3-cephem-carboxylate hydrochloride [Example 41]	0.1	0.2	0.2	0.1	0.2	0.2	–	–	–	–	–
CC(C)(C)C(=O)OCOC(=O)C1=C(COC(N)=O)CS[C@@H]2C(NC(=O)/C(=N\O)c3csc(N)n3)C(=O)N12 (some centres unmarked) [Compound B, Pivaloyloxymethyl 7-[(Z)-2-(2-aminothiazol-4-yl)-2-hydroxyiminoacetamido]-3-carbamoyloxymethyl-3-cephem-4-carboxylate, reference compound]	–	–	–	–	–	–	17	11	–	–	–
COCC1=C(C(=O)OC(C)OC(=O)OC(C)C)N2C(=O)C(NC(=O)/C(=N\OC)c3csc(N)n3)[C@H]2SC1 (some centres unmarked) [Compound E, 1-(Isopropyloxycarbonyloxy)ethyl 7-[(Z)-2-(2-aminothiazol-4-yl)-2-methoxyiminoacetamido]-3-methoxymethyl-3-cephem-4-carboxylate]	–	–	–	–	–	–	–	–	–	–	Intrapulmonary viable cells [8]: 4.26 ± 0.62 log CFU/lung; Eradication rate [8]: 0%; MIC [9]: 0.2 µg/mL (≈ 0.359 µM)
CO/N=C(\C(=O)NC1C(=O)N2C(C(=O)OCOC(=O)C(C)(C)C)=C(COC(N)=O)CS[C@H]12)c1csc(N)n1 (some centres unmarked) [Compound D, Pivaloyloxymethyl 7-[(Z)-2-(2-aminothiazol-4-yl)-2-methoxyiminoacetamido]-3-carbamoyloxymethyl-3-cephem-4-carboxylate, reference compound]	–	–	–	–	–	–	17	10.4	–	–	–
7-Amino-3-N,N-dimethylcarbamoyloxymethyl-3-cephem-4-carboxylic acid [Example 39]	0.05	0.2	0.025	0.05	0.2	0.05	–	–	–	–	–
CC(C)OC(=O)OC(C)OC(=O)C1=C(COC(=O)N(C)C)CSC2C(NC(=O)/C(=N\O)c3csc(N)n3)C(=O)N12 (centres unmarked) [Example 20, 1-(Isopropyloxycarbonyloxy)ethyl 7-[(Z)-2-(2-aminothiazol-4-yl)-2-hydroxyiminoacetamido]-3-N,N-dimethylcarbamoyloxymethyl-3-cephem-4-carboxylate]	–	–	–	–	–	–	46	22	0.1 (≈ 0.166 µM)	3.51 ± 0.37	Intrapulmonary viable cells [8]: 1.66 ± 1.02 log CFU/lung; Eradication rate [8]: 50%; MIC [9]: 0.1 µg/mL (≈ 0.166 µM)
CN(C)C(=O)OCC1=C(C(=O)OCOC(=O)C(C)(C)C)N2C(=O)C(NC(=O)/C(=N\O)c3csc(N)n3)C2SC1 (centres unmarked) [Example 14, Pivaloyloxymethyl 7-[(Z)-2-(2-aminothiazol-4-yl)-2-hydroxyiminoacetamido]-3-N,N-dimethylcarbamoyloxymethyl-3-cephem-4-carboxylate]	–	–	–	–	–	–	38	18.2	–	–	–
C=CC1=C(C(=O)O)N2C(=O)C(NC(=O)/C(=N\O)c3csc(N)n3)[C@H]2SC1 (some centres unmarked) [Compound F, 7-[(Z)-2-(2-aminothiazol-4-yl)-2-hydroxyiminoacetamido]-3-vinyl-3-cephem-4-carboxylic acid]	–	–	–	–	–	–	–	–	0.8 (≈ 2.02 µM)	5.16 ± 0.73	Intrapulmonary viable cells [8]: 6.25 ± 0.74 log CFU/lung; Eradication rate [8]: 0%; MIC [9]: 0.2 µg/mL (≈ 0.506 µM)
1-(Isopropoxycarbonyloxy)ethyl 7β-[2-(2-aminothiazol-4-yl)-2-(Z)-acetoxyiminoacetamido]-3-N,N-dimethylcarbamoyloxymethyl-3-cephem-carboxylate hydrochloride [Example 40]	0.05	0.2	0.05	0.1	0.2	0.05	–	–	–	–	–
CO/N=C(\C(=O)NC1C(=O)N2C(C(=O)OCOC(=O)C(C)(C)C)=C(COC(=O)N(C)C)CSC12)c1csc(N)n1 (centres unmarked) [Example 24, Pivaloyloxymethyl 7-[(Z)-2-(2-aminothiazol-4-yl)-2-methoxyiminoacetamido]-3-N,N-dimethylcarbamoyloxymethyl-3-cephem-4-carboxylate]	–	–	–	–	–	–	34	20	–	–	–
CC(=O)O/N=C(\C(=O)NC1C(=O)N2C(C(=O)OC(C)OC(=O)OC(C)C)=C(COC(=O)N(C)C)CSC12)c1csc(N)n1 (stereo not drawn) [Example 43, 1-(Isopropoxycarbonyloxy)ethyl 7β-[2-(2-aminothiazol-4-yl)-2-(Z)-acetoxyiminoacetamido]-3-N,N-dimethylcarbamoyloxymethyl-3-cephem-carboxylate]	–	–	–	–	–	–	–	–	0.2 (≈ 0.311 µM)	4.86 ± 0.60	–
CC(C)OC(=O)OC(C)OC(=O)C1=C(COC(N)=O)CS[C@@H]2C(NC(=O)/C(=N\O)c3csc(N)n3)C(=O)N12 (some centres unmarked) [Compound C, 1-(Isopropyloxycarbonyloxy)ethyl 7-[(Z)-2-(2-aminothiazol-4-yl)-2-hydroxyiminoacetamido]-3-carbamoyloxymethyl-3-cephem-4-carboxylate, reference compound]	–	–	–	–	–	–	7	4.5	0.8 (≈ 1.4 µM)	5.50 ± 0.61	–
Benzhydryl 7-formamido-3-N,N-dimethylcarbamoyloxymethyl-3-cephem-4-carboxylate [Example 38]	0.05	0.1	0.025	0.05	0.2	0.025	–	–	–	–	–
